Literature values, collected in patent US20030009042A1, “Method for making hydroxy-25-ene-vitamin D compounds” (Bone Care International, Inc., priority 1998, published 2003).
Read-outs that look alike come from different tables or passages of the source.

How the values were obtained:
[1] = not given; remark: listed apart in the source
[2] = oral, 0.5 μg/day, postmenopausal women

Row | Structure (SMILES) | efficacy (bone mass) (1 μg/day, Japan, population with low calcium intake) | efficacy in increasing bone mass (two μg/day, patients exhibiting senile osteoporosis) | toxicity, percentage of the patients ([1]; 1 μg/day) | toxicity, percentage of the patients ([1]; 2 μg/day) | effects on bone mass or mineral content (dosage levels below 0.5 μg/day) | efficacy in preventing or restoring loss of bone mass or bone mineral content (dosage ranges taught in the '596 Patent) | intestinal calcium absorption and calcium balance [2]
1 | C=C1/C(=C\C=C2/CCC[C@]3(C)[C@@H]([C@H](C)CCCC(C)C)CC[C@@H]23)C[C@@H](O)C[C@@H]1O [1α-hydroxyvitamin D3] | efficacy is found | found to have efficacy in increasing bone mass | approximately 20% | approximately 67% | – | – | –
2 | C=C1/C(=C\C=C2/CCC[C@]3(C)[C@@H]([C@H](C)CCCC(C)(C)O)CC[C@@H]23)C[C@@H](O)C[C@@H]1O [1α,25-dihydroxyvitamin D3] | – | – | – | – | no effects are observed | at best, modest efficacy | improved intestinal calcium absorption as well as calcium balance
